Holding throughout (assay): whole-cell patch clamp, HEK293T cells expressing mutant
Type in all cases: cell-based
Common to all, as to settings: for relative responsiveness: 100 µM agonist 2 s, relative to ATP (100%)

The target in experiment [1] is T1, rP2X4R S212A mutant (Rattus norvegicus, UniProt P51577, S212A).
T1 construct: expressed in transfected cells; host or cells: HEK293T
T1 sequence (P51577 1-388 S212A): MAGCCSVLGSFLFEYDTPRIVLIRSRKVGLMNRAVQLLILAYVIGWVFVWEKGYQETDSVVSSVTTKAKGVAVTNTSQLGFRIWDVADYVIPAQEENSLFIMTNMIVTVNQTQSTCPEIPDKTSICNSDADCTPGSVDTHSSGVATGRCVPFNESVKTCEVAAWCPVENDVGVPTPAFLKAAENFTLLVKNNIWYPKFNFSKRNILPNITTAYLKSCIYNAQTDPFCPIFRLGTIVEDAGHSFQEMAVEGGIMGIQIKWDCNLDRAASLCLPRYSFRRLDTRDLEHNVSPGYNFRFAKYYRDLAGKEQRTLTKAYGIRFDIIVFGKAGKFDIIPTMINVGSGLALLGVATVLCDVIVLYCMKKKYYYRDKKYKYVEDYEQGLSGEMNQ
The procedure:
(§1) To express the recombinant channels, we used human embryonic kidney (HEK) 293T cells (American Type Culture Collection, Rockville, MD, USA) grown in Dulbecco modified Eagle’s medium (Thermo Fisher Scientific, Waltham, MA) supplemented with 10% fetal bovine serum (Sigma-Aldrich, St Louis, MO), 50 U/ml penicillin and 50 µg/ml streptomycin (both Thermo Fisher Scientific, Waltham, MA) in a humidified 5% CO2 and 95% air at 37°C. Cells were cultured in 75 cm^2 plastic culture flasks (NUNC, Rochester, NY) for 36–72 hours until reaching 80–95% confluence. Before the day of transfection, the cells were plated on 35 mm culture dishes (Sarstedt, Newton, NC) and incubated at 37°C for at least 24 h. Transfection was done using 2 µg of either WT or mutant receptor DNA with 2 µl of JetPrime reagent in 2 ml of Dulbecco modified Eagle’s medium, according to manufacturer’s instructions (PolyPlus-transfection, Illkirch, France). Transfected cells were identified by the fluorescence signal of EGFP using the Olympus IX71 inverted research microscope with fluorescence illuminators (Model IX71; Olympus, Melville, NY).
(§2) cDNAs encoding the sequences of the rP2X4 and mutated subunits were subcloned into the pIRES2-EGFP vector (Clontech, Mountain View, CA, USA). To generate the mutants, oligonucleotides (synthesized and provided by VBC-Genomics, Vienna, Austria or Sigma Aldrich) containing specific mutagenesis mismatches were introduced into the rP2X4/pIRES2-EGFP template using PfU Ultra DNA polymerase (Thermo Fisher Scientific). A High-Speed Plasmid Mini Kit (Geneaid, Taipei City, Taiwan) was used to isolate the plasmids for transfection. Dye terminator cycle sequencing (ABI PRISM 3100, Applied Biosystems, Foster City, CA) was used to identify and verify the presence of the mutations. The sequencing was performed by the DNA Sequencing Laboratory, Institute of Microbiology, ASCR, Prague.
(§3) ATP-induced currents were recorded from whole cells clamped to −60 mV using an Axopatch 200B patch-clamp amplifier (Axon Instruments, Union City, CA). The recordings were captured and stored using the Digidata 1322A and pClamp9 software package (Axon Instruments). During the experiments, the cell culture was perfused with a bath solution containing: 142 mM NaCl, 3 mM KCl, 2 mM CaCl2, 1 mM MgCl2, 10 mM 4-(2-Hydroxyethyl)piperazine-1-ethanesulfonic acid (HEPES) and 10 mM D-glucose, adjusted to pH 7.3 with 1 M NaOH. The patch electrodes were filled with a solution containing: 154 mM CsCl, 11 mM EGTA and 10 mM HEPES, adjusted to pH 7.2 with 1.6 M CsOH. The whole-cell configuration was used to abolish the influence of natively present metabotropic receptors for ATP and we used intracellular cesium to block any kind of possible background potassium conductance. Potency of ATP was measured based on the activation of naïve (not previously stimulated) receptors using a short (2–5 s) application of various concentrations of ATP. The results are expressed as molar concentration of ATP required to produce 50% of the maximal response (EC50). One or two responses were recorded from one cell, if not otherwise stated, and responses from different cells were pooled. The maximum current amplitude (Imax) was measured in response to application of supramaximal concentrations (100–1000 µM) of ATP. Responsiveness to P2XR agonists 2-MeS-ATP, ATPγS, BzATP, and α,β-meATP, all applied in 100 µM concentration, was expressed as percentage of response in comparison to 100 µM ATP treatment for selected mutants. In all mutants, the whole cell currents were also measured in the presence of 3 µM IVM, which was dissolved in dimethyl sulfoxide, stored in stock solutions at 10 mM, and diluted to required concentrations in bath solution in the day of experiment. The control and drug containing solutions were applied via a rapid (exchange time 30–40 ms) perfusion system (RSC-200, BIOLOGIC, Claix, France). All other chemicals are from Sigma-Aldrich. […]

In experiment [2] the target is T2, rP2X4R P290A mutant (Rattus norvegicus, UniProt P51577, P290A).
T2 construct: expressed in transfected cells; host or cells: HEK293T
T2 sequence (P51577 1-388 P290A): T1 sequence (P51577 1-388 S212A) with A212S, P290A
As to the method:
as §1, §2, §3

Experiment [3] addresses T3, rP2X4R L214A mutant (Rattus norvegicus, UniProt P51577, L214A).
T3 construct: expressed in transfected cells; host or cells: HEK293T
T3 sequence (P51577 1-388 L214A): T1 sequence (P51577 1-388 S212A) with A212S, L214A
As to the method: as §1, §2, §3

Where [4] appears, read: 100 µM ATP 60 s, biexponential fit.
[5] abbreviates: contribution of τdes2, 100 µM ATP 60 s.
The mark [6] stands for this setting: decay after removal of 1 or 3 µM ATP, 3 µM IVM.
Where [7] appears, read: naïve receptors, 2–5 s application.
The mark [8] stands for this setting: 3 µM IVM 4-6 min vs IVM-untreated.

Substitutions are numbered along the chain they refer to.

What is called EC50 is the concentration that produces a half-maximal response.

With “2′(3′-O-(4-Benzoylbenzoyl)adenosine 5′-triphosphate [BzATP]”, the relative responsiveness in experiment [1] stood at 47.5±5.2%; in experiment [2] it was 16.9±3.2 %; in experiment [3], 5.9±0.5 %.

`CSc1nc(N)c2ncn([C@@H]3O[C@H](COP(=O)(O)OP(=O)(O)OP(=O)(O)O)[C@@H](O)[C@H]3O)c2n1` [2-MeS-ATP, 2-(Methylthio)adenosine 5′-triphosphate]: the relative responsiveness in experiment [1] is listed as 65.1±19.7%; in experiment [2], 50.7±3.7%; in experiment [3], 21.4±1.7 %.

`Nc1ncnc2c1ncn2[C@@H]1O[C@H](COP(=O)(O)OP(=O)(O)OP(=O)(O)O)[C@@H](O)[C@H]1O` [ATP]: the τdes1 in experiment [1] (setting [4]) is reported as 1.7 ± 0.4 s; in experiment [2] (setting [4]), 0.8 ± 0.1 s; in experiment [3] (setting [4]), 1.9 ± 0.4 s. Further, the τdes2 in experiment [1] (setting [4]) turned out to be 11.4 ± 1.5 s; in experiment [2] (setting [4]), 12.0 ± 1.5 s; in experiment [3] (setting [4]) it was 12.6 ± 1.9 s. Moreover, the Imax in experiment [1] (100–1000 µM ATP) was determined as 2.1 ± 0.2 nA; in experiment [2] (100–1000 µM ATP), 0.9 ± 0.1 nA; in experiment [3] (100–1000 µM ATP) it was 1.0 ± 0.2 nA. The “Imax+IVM” value in experiment [1] (ATP after 3 µM IVM 4-6 min) is listed as 3.4 ± 0.2 nA; in experiment [2] (ATP after 3 µM IVM 4-6 min), 3.3 ± 0.5 nA; in experiment [3] (ATP after 3 µM IVM 4-6 min) it was 3.9 ± 0.8 nA. Moreover, the “A2 /(A1+A2)” value in experiment [1] (setting [5]) stood at 62 ± 5%; in experiment [2] (setting [5]) it was 53 ± 3%; in experiment [3] (setting [5]), 62 ± 3%. The “τoff +IVM” value is 20 ± 5.0 s in experiment [1] (setting [6]), 13 ± 1.4 s in experiment [2] (setting [6]) and 3.4 ± 0.6 s in experiment [3] (setting [6]). The concentration giving a half-maximal response (EC50) in experiment [1] (setting [7]) is 4.8 ± 1.2 µM; in experiment [2] (setting [7]), 8 ± 3.4 µM; in experiment [3] (setting [7]), 25 ± 5.7 µM. Further, the τdes came out at 7.8 ± 1.1 s in experiment [1] (weighted, 100 µM ATP 60 s); 6.6 ± 0.5 s in experiment [2] (weighted, 100 µM ATP 60 s); 8.8 ± 1.3 s in experiment [3] (weighted, 100 µM ATP 60 s). Moreover, in experiment [3], the “EC50 rightward shift compared to WT” value is listed as “approximately 10 fold”.

For `Nc1ncnc2c1ncn2[C@@H]1O[C@H](CO[P@](=O)(O)O[P@](=O)(O)O[P@@](=O)(O)S)[C@@H](O)[C@H]1O` [ATPγS, Adenosine 5′-(γ-thio)triphosphate], the results for the relative responsiveness in experiment [1], in experiment [2] and in experiment [3] were 61.7±3.9%, 37.0±11.0% and 7.9±2.0 %, respectively.

On to `CC[C@H](C)[C@H]1O[C@]2(CC[C@@H]1C)C[C@@H]1C[C@@H](C/C=C(\C)[C@@H](O[C@H]3C[C@H](OC)[C@@H](O[C@H]4C[C@H](OC)[C@@H](O)[C@H](C)O4)[C@H](C)O3)[C@@H](C)/C=C/C=C3\CO[C@@H]4[C@H](O)C(C)=C[C@@H](C(=O)O1)[C@]34O)O2` [IVM, ivermectin], for which the “Fold incr. Imax” value in experiment [1] (setting [8]) came to 1.6 ± 0.2 fold; in experiment [2] (setting [8]), 3.7 ± 0.2 fold; in experiment [3] (setting [8]), 3.7 ± 0.7 fold.

For `Nc1ncnc2c1ncn2C1OC(COP(=O)(O)CP(=O)(O)OP(=O)(O)O)C(O)C1O` (stereo not drawn) [α,β-meATP, α,β-methyleneadenosine 5′-triphosphate], the relative responsiveness stood at 19.2±6.2% in experiment [1], 17.8±2.4 % in experiment [2] and 6.5±1.5 % in experiment [3].

Values taken from paper PMC4232510, “Identification of Functionally Important Residues of the Rat P2X4 Receptor by Alanine Scanning Mutagenesis of the Dorsal Fin and Left Flipper Domains” (PLoS ONE, 2014).
